Laboratory results: article doi:10.1101/2023.03.24.534094v2 (biorxiv, 2023)
Read-outs that look alike come from different tables or passages of the source. Each block holds one compound with its values, some of them ahead of it.

How the values were obtained:
Assay in all cases: biochemical
[1] = biological target: FLT1 (Homo sapiens, UniProt P17948)
[2] = biological target: T1, NEK1 (Homo sapiens, UniProt Q96PY6)
T1 sequence (Q96PY6 1-1258): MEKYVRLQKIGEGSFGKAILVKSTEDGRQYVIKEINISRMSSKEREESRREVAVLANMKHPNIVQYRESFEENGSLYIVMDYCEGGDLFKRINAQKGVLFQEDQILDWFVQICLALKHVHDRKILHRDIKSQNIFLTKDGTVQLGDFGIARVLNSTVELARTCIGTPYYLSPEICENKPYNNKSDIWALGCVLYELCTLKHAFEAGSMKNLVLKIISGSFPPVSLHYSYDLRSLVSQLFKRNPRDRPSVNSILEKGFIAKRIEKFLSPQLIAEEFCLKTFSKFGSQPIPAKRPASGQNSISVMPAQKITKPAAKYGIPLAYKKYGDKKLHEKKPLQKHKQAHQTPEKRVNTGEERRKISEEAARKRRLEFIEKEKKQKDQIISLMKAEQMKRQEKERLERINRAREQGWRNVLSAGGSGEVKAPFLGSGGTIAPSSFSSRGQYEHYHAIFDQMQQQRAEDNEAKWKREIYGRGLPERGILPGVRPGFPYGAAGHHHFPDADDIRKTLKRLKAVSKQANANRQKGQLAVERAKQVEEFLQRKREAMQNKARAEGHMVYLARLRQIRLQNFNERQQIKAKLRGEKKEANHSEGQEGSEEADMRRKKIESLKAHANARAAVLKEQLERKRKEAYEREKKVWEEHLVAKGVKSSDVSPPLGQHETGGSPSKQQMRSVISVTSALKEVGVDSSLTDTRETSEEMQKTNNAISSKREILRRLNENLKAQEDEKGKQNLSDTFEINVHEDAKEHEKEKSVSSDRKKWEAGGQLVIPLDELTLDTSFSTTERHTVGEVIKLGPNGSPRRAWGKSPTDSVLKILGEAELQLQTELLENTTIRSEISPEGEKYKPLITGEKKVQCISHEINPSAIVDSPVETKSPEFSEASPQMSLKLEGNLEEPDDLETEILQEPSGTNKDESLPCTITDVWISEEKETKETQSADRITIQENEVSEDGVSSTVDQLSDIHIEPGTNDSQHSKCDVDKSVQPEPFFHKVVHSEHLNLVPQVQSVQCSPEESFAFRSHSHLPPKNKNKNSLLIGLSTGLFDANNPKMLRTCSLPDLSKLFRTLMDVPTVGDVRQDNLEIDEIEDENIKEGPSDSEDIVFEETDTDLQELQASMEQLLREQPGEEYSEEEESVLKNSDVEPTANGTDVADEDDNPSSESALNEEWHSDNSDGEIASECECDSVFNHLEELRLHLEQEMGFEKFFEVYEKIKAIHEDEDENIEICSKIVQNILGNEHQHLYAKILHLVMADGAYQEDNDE

[3] = biological target: PIM1 (Homo sapiens, UniProt P11309)
PIM1, sequence (P11309 whole entry): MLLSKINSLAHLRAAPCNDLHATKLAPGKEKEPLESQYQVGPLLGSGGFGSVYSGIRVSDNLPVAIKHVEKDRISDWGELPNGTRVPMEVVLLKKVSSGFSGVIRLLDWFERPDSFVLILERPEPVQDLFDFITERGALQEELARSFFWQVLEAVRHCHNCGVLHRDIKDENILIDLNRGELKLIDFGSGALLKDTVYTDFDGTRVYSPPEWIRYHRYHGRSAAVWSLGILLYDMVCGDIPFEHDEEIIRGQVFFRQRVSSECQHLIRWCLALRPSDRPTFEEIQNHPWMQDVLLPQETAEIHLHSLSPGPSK

[4] = biological target: T2, TTK (Homo sapiens, UniProt P33981)
T2 sequence (P33981 1-857): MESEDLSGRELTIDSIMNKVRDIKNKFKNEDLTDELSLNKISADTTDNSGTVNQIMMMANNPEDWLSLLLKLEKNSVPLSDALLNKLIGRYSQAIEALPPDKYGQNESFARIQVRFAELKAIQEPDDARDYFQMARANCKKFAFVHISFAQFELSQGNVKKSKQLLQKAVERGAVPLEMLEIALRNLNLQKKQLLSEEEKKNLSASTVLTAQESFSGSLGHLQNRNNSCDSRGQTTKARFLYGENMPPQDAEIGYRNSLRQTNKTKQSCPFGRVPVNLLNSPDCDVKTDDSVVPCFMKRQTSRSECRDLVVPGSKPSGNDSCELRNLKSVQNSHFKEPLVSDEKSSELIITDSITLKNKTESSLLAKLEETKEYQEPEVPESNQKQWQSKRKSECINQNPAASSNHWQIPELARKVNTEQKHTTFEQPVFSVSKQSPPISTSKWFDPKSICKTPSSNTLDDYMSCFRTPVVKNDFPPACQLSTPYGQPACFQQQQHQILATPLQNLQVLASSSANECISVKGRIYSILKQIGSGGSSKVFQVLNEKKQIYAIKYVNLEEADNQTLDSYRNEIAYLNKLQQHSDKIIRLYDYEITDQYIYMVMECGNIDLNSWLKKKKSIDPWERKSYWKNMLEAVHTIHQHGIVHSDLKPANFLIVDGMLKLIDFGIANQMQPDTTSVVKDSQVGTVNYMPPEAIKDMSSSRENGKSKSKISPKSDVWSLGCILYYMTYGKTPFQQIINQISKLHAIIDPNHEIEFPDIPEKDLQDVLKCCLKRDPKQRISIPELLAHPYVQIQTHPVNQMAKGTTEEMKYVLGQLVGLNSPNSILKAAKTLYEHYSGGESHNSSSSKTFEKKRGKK

FLT1, sequence (P17948 whole entry): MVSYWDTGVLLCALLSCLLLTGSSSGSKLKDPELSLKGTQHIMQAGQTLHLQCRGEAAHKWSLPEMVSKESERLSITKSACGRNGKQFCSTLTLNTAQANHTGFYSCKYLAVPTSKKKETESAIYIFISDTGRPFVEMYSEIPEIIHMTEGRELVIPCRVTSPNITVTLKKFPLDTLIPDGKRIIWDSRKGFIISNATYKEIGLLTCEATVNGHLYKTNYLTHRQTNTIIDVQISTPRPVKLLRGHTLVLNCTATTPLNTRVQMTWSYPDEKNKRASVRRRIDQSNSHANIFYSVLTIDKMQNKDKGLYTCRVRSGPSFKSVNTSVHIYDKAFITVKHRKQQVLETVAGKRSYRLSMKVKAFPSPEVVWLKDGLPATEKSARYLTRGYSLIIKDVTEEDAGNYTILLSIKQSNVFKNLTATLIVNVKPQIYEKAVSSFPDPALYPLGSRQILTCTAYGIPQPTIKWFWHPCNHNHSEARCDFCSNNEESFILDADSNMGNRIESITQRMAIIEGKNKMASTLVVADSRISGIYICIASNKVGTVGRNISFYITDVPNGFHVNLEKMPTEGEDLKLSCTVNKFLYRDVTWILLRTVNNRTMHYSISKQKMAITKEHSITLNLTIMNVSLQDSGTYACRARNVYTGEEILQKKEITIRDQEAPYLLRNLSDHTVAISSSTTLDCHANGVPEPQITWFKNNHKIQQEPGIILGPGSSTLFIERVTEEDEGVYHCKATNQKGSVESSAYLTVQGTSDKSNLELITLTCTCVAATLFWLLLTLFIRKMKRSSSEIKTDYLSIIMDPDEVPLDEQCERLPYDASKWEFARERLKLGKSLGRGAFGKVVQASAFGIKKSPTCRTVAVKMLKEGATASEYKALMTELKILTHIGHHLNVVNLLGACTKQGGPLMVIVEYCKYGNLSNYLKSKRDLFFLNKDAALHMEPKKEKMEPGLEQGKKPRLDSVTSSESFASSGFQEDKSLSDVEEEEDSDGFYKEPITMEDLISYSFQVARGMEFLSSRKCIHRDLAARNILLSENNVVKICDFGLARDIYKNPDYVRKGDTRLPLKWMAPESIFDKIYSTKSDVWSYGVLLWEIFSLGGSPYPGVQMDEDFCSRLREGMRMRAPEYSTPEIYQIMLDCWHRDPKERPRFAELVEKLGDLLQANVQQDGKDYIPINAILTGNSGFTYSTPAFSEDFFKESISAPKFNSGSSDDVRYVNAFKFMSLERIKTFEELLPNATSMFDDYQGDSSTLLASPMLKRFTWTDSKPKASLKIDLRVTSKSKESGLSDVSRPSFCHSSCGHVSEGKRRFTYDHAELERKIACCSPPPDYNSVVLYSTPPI

- ΔTm at 10 µM ([1]; read-out: dTm 7): 5.4 °C
- ΔTm at 10 µM ([2]; read-out: dTm 7): 0.1 °C
- ΔTm at 10 µM ([3]; read-out: dTm 7): 0.6 °C
- ΔTm at 10 µM ([4]; read-out: dTm 7): -0.2 °C
Structure (SMILES): CNc1ncc2cc(-c3cc(Br)ccc3Cl)c(=O)n(C[C@H]3OC[C@H](N)CO3)c2n1 [compound 7, 8-(((2r,5r)-5-Amino-1,3-dioxan-2-yl)methyl)-6-(5-bromo-2-chlorophenyl)-2-(methylamino)pyrido[2,3-d]pyrimidin-7(8H)-one]

- ΔTm at 10 µM ([1]; read-out: dTm 6): 6 °C
- ΔTm at 10 µM ([2]; read-out: dTm 6): -0.3 °C
- ΔTm at 10 µM ([3]; read-out: dTm 6): 1.2 °C
- ΔTm at 10 µM ([4]; read-out: dTm 6): 0.2 °C
Structure (SMILES): CNc1ncc2cc(-c3cc(Br)ccc3Cl)c(=O)n(CCCCN)c2n1 [compound 6, 8-(4-Aminobutyl)-6-(5-bromo-2-chlorophenyl)-2-(methylamino)pyrido[2,3-d]pyrimidin-7(8H)-one]

More lines, now with the values behind:

Structure (SMILES): CNc1ncc2cc(-c3cc(F)ccc3F)c(=O)n(CCCCN)c2n1 [compound 5, 8-(4-Aminobutyl)-6-(2,5-difluorophenyl)-2-(methylamino)pyrido[2,3-d]pyrimidin-7(8H)-one]
- ΔTm at 10 µM ([1]; read-out: dTm MR22 (5)): 4.6 °C
- ΔTm at 10 µM ([2]; read-out: dTm MR22 (5)): 0 °C
- ΔTm at 10 µM ([3]; read-out: dTm MR22 (5)): 1.1 °C
- ΔTm at 10 µM ([4]; read-out: dTm MR22 (5)): -2.6 °C

Structure (SMILES): CNc1ncc2cc(-c3ccccc3Cl)c(=O)n(CCCCN)c2n1 [compound 4, 8-(4-Aminobutyl)-6-(2-chlorophenyl)-2-(methylamino)pyrido[2,3-d]pyrimidin-7(8H)-one]
- ΔTm at 10 µM ([1]; read-out: dTm MR21 (4)): 5.4 °C
- ΔTm at 10 µM ([2]; read-out: dTm MR21 (4)): 0.1 °C
- ΔTm at 10 µM ([3]; read-out: dTm MR21 (4)): 0.4 °C
- ΔTm at 10 µM ([4]; read-out: dTm MR21 (4)): 0.9 °C

Structure (SMILES): CNc1ncc2cc(-c3ccc(-c4cccc(C)n4)cc3Cl)c(=O)n(CC3OCC(N)CO3)c2n1 (centres unmarked) [compound 2, G-5555]
- dTm G-5555 (2) ([1]; 10 µM, binder): 1.7 °C
- dTm G-5555 (2) ([2]; 10 µM, binder): -2.2 °C
- dTm G-5555 (2) ([3]; 10 µM, binder): -1.6 °C
- dTm G-5555 (2) ([4]; 10 µM, binder): 1.5 °C
